These results are taken from US20120046357A1, “Benzamide and Napthamide Derivatives Inhibiting Nuclear Factor-Kappa (B) - (NK-kB)” (Profectus Biosciences, Inc., priority 2009, published 2012).

Counter-ions that a name gives are not always drawn.

In one experiment the target is T1, c-Rel (Homo sapiens, UniProt Q04864).
T1 sequence (Q04864 2-619 limits assumed): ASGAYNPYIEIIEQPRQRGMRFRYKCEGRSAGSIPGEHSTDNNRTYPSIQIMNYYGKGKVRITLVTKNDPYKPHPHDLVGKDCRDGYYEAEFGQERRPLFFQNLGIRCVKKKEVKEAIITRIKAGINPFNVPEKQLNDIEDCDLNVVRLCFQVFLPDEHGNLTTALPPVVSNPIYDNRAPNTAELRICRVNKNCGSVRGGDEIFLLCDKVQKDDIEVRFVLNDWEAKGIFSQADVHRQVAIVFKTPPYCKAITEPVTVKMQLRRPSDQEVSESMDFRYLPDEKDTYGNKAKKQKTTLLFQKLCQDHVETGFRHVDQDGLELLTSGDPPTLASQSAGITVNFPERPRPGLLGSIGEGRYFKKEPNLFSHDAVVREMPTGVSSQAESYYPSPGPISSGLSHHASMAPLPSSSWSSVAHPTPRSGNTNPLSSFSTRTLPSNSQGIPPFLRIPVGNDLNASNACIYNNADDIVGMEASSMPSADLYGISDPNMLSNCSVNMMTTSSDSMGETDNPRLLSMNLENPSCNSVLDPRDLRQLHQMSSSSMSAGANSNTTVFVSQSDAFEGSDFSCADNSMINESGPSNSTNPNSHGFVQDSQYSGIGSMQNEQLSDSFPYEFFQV
The experiment is described as follows: TransAM NF-κB family DNA binding ELISA, c-Rel. In kind it is biochemical. Particulars: for IC50: binding to NF-κB consensus oligonucleotide, cells without % sign. The method, then:
The binding activity of NF-κB heterodimer or homodimer subunits from activated nuclear extracts or purified recombinant NF-κB proteins exposed to the drug compounds was evaluated using the TransAM NF-κB Family binding ELISA (Active Motif). 3-5 μg of nuclear extracts from TNFα activated Hela or Raji cells (Active Motif) or 20 ng of purified recombinant proteins (p65 and p50 from Active Motif, p52 from Santa Cruz) were incubated for 1 hour at room temperature with 20 μL drug compounds diluted in Complete Lysis buffer without DTT. Treated samples were then transferred to 30 μL Complete Binding Buffer (with DTT) in microplate wells pre-coated with the NF-κB consensus oligonucleotide. […] The plate was incubated for 1 hour at room temperature with gentle shaking and then washed 3 times with 200 μL 1× Wash Buffer. NF-κB p65, p50, p52, RelB, or c-Rel subunits bound to the plate were detected with 100 μL of the primary antibody (diluted 1:1000 in 1× Antibody Buffer) specific for that subunit. The plate was incubated for 1 hour at room temperature and then washed 3 times with 200 μL 1× Wash Buffer. Next, 100 μL of a HRP conjugated goat anti-rabbit antibody (diluted 1:1,000 in 1× Antibody Buffer) was added to each well. The plate was incubated for 1 hour at room temperature and then washed 4 times with 200 μL 1× Wash Buffer. 100 μL of room temperature Developing Solution was added to each well. The reaction was allowed to develop for 2-10 minutes until a medium dark blue color developed (depending on the subunit activity in the lot of extract or lot of recombinant protein used) and then the reaction was stopped with 100 μL Stop Solution yielding a yellow color. Absorbance was recorded using a Becton-Dickinson DTX 880 Multimode Detector at 450 nm with a reference wavelength subtracted at 620 nm. FIGS. 2, 3 and 4 illustrate the effect of Example 10 on inhibiting RelA, RelB and c-Rel binding to NF-κB sites.
Background: ELISA stands for enzyme-linked immunosorbent assay.

For experiment [1], the system named is NF-κB. The experiment is described as follows: NF-κB/293/GFP reporter cell assay (TNF-α induced GFP expression). Particulars: for EC50: pTRH1-NF-κB-dscGFP reporter, 2 h pretreatment, 20 ng/ml TNF-α 18 h, read-out: NF-KB/293/GFP EC50. In kind it is cell-based. The method, then:
(§1) Two reporter cell assays were used to determine the ability of the compound of Example 10 to inhibit NF-κB driven transcription. The first assay was a 293-cell based assay with a stably integrated pNF-κB-luc reporter plasmid containing 3 NF-κB promoter elements. The second assay was a 293-cell based assay with a stably integrated pTRH1-NF-κB-dscGFP reporter containing 4 NF-κB promoter elements. Cells were treated with 0, 0.2, 1, 10, 20 and 40 μM of the compound of Example 10 for 2 hours then were induced with 20 ng/ml TNF-α for 18 hours. Following the induction, luminescence or fluorescence was quantified using a Beckman-Coulter 2300 plate reader. […] These values represent the median value generated from three independent experiments. As a control, 0.5% DMSO treated and untreated cells were compared to verify that the compound of Example 10 had no effect on the expression of luciferase or in the readout of the assay. There was a slight decrease in the output from the assay in the DMSO treated population although it was not statistically significant. As a result of the controls, the decrease in activity in the drug treated samples was compared to the DMSO control sample.

In experiment [2] the test system is NF-κB. Briefly: 293/NFkB-luc reporter cell assay (TNF-α induced luciferase expression). Particulars: 293 cells; for EC50: pNF-κB-luc reporter, 2 h pretreatment, 20 ng/ml TNF-α 18 h. In kind it is cell-based. The method, then: as §1
The mark [3] stands for this setting: Homo sapiens, HEK293, 293 cells.

Take `CN(C)c1ccc(C(=O)NC2=CC(=O)C3OC3C2O)c(O)c1` (racemic) [Example 10, (±)-4-(dimethylamino)-2-hydroxy-N-(2-hydroxy-5-oxo-7-oxabicyclo[4.1.0]hept-3-en-3-yl)benzamide]: the half-maximal inhibitory concentration (IC50) (commonly the concentration that inhibits the measured activity by half) on c-Rel turned out to be 17 µM; with NF-κB [1] (Homo sapiens, HEK293, median of three independent experiments, 293 cells, 20 ng/ml TNF-α, read-out: median IC50, inhibition of expression of the Green fluorescent protein gene), 2.5 µM; with NF-κB [2] (Homo sapiens, HEK293, median of three independent experiments, 20 ng/ml TNF-α, read-out: median IC50, inhibition of expression of the luciferase gene), 8.7 µM. The EC50 with NF-κB [1] (setting [3]) was found to be 2.5 µM; in the experiment with NF-κB [2] (293/NFkB-luc), 8.7 µM.

`CN(C)c1ccc(C(=O)NC2=CC(=O)C3OC3C2O)c(O)c1` (racemic) [Example 19, (±)-4-(dimethylamino)-2-hydroxy-N-(2-hydroxy-5-oxo-7-oxabicyclo[4.1.0]hept-3-en-3-yl)benzamide trifluoroacetate] returned a 50% inhibitory concentration (IC50) on c-Rel of 14 µM. Also, the EC50 with NF-κB [1] (293 cells, trifluoroacetate) came to 1.7 µM; in the experiment on NF-κB [2] (trifluoroacetate) it was 7.5 µM.

For the molecule `O=C(NC1=CC(=O)C2OC2C1O)c1ccc(C(F)(F)F)cc1O` (racemic) [Example 1, 2-hydroxy-N-(2-hydroxy-5-oxo-7-oxabicyclo[4.1.0]hept-3-en-3-yl)-4-(trifluoromethyl)benzamide], at c-Rel, the inhibition (usually the relative decrease from the control value, in per cent) at 5 µM is 1%. The results for the EC50 with NF-κB [1] (setting [3]) and with NF-κB [2] (293/NFkB-luc) were 3.4 µM and 36 µM, respectively.

Molecule `O=C(NC1=CC(=O)C2OC2C1O)c1ccc(Cl)cc1O` (racemic) [Example 2, (±)-4-chloro-2-hydroxy-N-(2-hydroxy-5-oxo-7-oxabicyclo[4.1.0]hept-3-en-3-yl)benzamide] displayed an inhibition at 5 µM at c-Rel of 7%. Moreover, the EC50 in the experiment with NF-κB [1] (setting [3]) was found to be 7 µM; in the experiment on NF-κB [2] (293/NFkB-luc), 12 µM.

As for `O=C(NC1=CC(=O)C2OC2C1O)c1cccc(Cl)c1O` (racemic) [Example 6, (±)-3-chloro-2-hydroxy-N-(2-hydroxy-5-oxo-7-oxabicyclo[4.1.0]hept-3-en-3-yl)benzamide], the inhibition at 5 µM at c-Rel was 7%. The EC50 was 14 µM with NF-κB [1] (setting [3]) and 37 µM in the experiment with NF-κB [2] (293/NFkB-luc).

At c-Rel, `O=C(NC1=CC(=O)C2OC2C1O)c1ccc2ccccc2c1O` (racemic) [Example 8, (±)-1-hydroxy-N-(2-hydroxy-5-oxo-7-oxabicyclo[4.1.0]hept-3-en-3-yl)-2-naphthamide] had an inhibition at 5 µM of 3%. Moreover, the EC50 in the experiment with NF-κB [1] (setting [3]) and in the experiment on NF-κB [2] (293/NFkB-luc) was 7.1 µM in each case.

In turn, `O=C(NC1=CC(=O)C2OC2C1O)c1cc2ccccc2cc1O` (racemic) [Example 7, (±)-3-hydroxy-N-(2-hydroxy-5-oxo-7-oxabicyclo[4.1.0]hept-3-en-3-yl)-2-naphthamide] yielded an inhibition at 5 µM at c-Rel of 2%. Also, the EC50 in the experiment on NF-κB [1] (setting [3]) worked out at 4.7 µM; with NF-κB [2] (293/NFkB-luc), 21 µM.

Take `COc1c(C(=O)NC2=CC(=O)C3OC3C2O)ccc(F)c1F` (racemic) [Example 16, (±)-3,4-difluoro-N-(2-hydroxy-5-oxo-7-oxabicyclo[4.1.0]hept-3-en-3-yl)-2-methoxybenzamide]: the IC50 on c-Rel came to 8.1 µM. The figures for the EC50 in the experiment on NF-κB [1] (setting [3]) and in the experiment on NF-κB [2] (293/NFkB-luc) were 2.6 µM and 8.7 µM, respectively.

Turning to `COc1ccc(C(=O)NC2=CC(=O)C3OC3C2O)c(O)c1` (racemic) [Example 5, (±)-2-hydroxy-N-(2-hydroxy-5-oxo-7-oxabicyclo[4.1.0]hept-3-en-3-yl)-4-methoxybenzamide], on c-Rel, testing at 5 µM gave an inhibition of 6%. In addition, the EC50 with NF-κB [1] (setting [3]) amounted to 6.1 µM; in the experiment with NF-κB [2] (293/NFkB-luc), 32 µM.

Take `O=C(NC1=CC(=O)C2OC2C1O)c1cc2cc(Br)ccc2cc1O` (racemic) [Example 15, (±)-7-bromo-3-hydroxy-N-(2-hydroxy-5-oxo-7-oxabicyclo[4.1.0]hept-3-en-3-yl)-2-naphthamide]: the IC50 at c-Rel was determined as 3.7 µM. Moreover, the values for the EC50 with NF-κB [1] (setting [3]) and in the experiment on NF-κB [2] (293/NFkB-luc) were 2.4 µM and 8 µM, respectively.

The molecule `COc1cc(N(C)C)ccc1C(=O)NC1=CC(=O)C2OC2C1O` (racemic) [Example 20, (±)-4-(dimethylamino)-N-(2-hydroxy-5-oxo-7-oxabicyclo[4.1.0]hept-3-en-3-yl)-2-methoxybenzamide] registered an IC50 at c-Rel of 1.9 µM. Also, the EC50 with NF-κB [1] (setting [3]) is 1.3 µM; with NF-κB [2] (293/NFkB-luc), 4.6 µM.

Molecule `Cc1cccc(C(=O)NC2=CC(=O)C3OC3C2O)c1O` (racemic) [Example 4, (±)-2-hydroxy-N-(2-hydroxy-5-oxo-7-oxabicyclo[4.1.0]hept-3-en-3-yl)-3-methylbenzamide] showed an inhibition at 5 µM at c-Rel of 0%. Also, the values for the EC50 with NF-κB [1] (setting [3]) and in the experiment with NF-κB [2] (293/NFkB-luc) were 18 µM and 19 µM, respectively.

`Cc1ccc(C(=O)NC2=CC(=O)C3OC3C2O)c(O)c1` (racemic) [Example 3, (±)-2-hydroxy-N-(2-hydroxy-5-oxo-7-oxabicyclo[4.1.0]hept-3-en-3-yl)-4-methylbenzamide] gave an inhibition at 5 µM on c-Rel of 5%. Further, the EC50 in the experiment with NF-κB [1] (setting [3]) amounted to 9 µM; in the experiment with NF-κB [2] (293/NFkB-luc), 20 µM.

`O=C(NC1=CC(=O)C2OC2C1O)c1cc(Br)ccc1O` (racemic) [Example 9, (±)-5-bromo-2-hydroxy-N-(2-hydroxy-5-oxo-7-oxabicyclo[4.1.0]hept-3-en-3-yl)benzamide] came in with an inhibition at 5 µM on c-Rel of 20%. For the same molecule, the EC50 in the experiment with NF-κB [1] (setting [3]) came to 5.2 µM; in the experiment on NF-κB [2] (293/NFkB-luc) it was 27 µM.

Consider `COc1ccc2cc(O)c(C(=O)NC3=CC(=O)C4OC4C3O)cc2c1` (racemic) [Example 11, (±)-3-hydroxy-N-(2-hydroxy-5-oxo-7-oxabicyclo[4.1.0]hept-3-en-3-yl)-7-methoxy-2-naphthamide], for which the half-inhibitory concentration (IC50) on c-Rel came to 16 µM. Moreover, the values for the EC50 with NF-κB [1] (setting [3]) and with NF-κB [2] (293/NFkB-luc) were 5 µM and 7.7 µM, respectively.

Consider `Cc1ccc(C(C)C)c(C(=O)NC2=CC(=O)C3OC3C2O)c1O` (racemic) [Example 17, (±)-2-hydroxy-N-(2-hydroxy-5-oxo-7-oxabicyclo[4.1.0]hept-3-en-3-yl)-6-isopropyl-3-methylbenzamide], for which, on c-Rel, the IC50 stood at 232 µM. Moreover, the EC50 in the experiment on NF-κB [1] (setting [3]) is 6.7 µM; with NF-κB [2] (293/NFkB-luc) it was 3.7 µM.
